Structures are written as SMILES.

The target in the first assay is Rhesus PDE2A3 (Macaca mulatta, UniProt B3VTJ2). Kind of assay: PDE2 fluorescence polarization (IMAP FP) assay, rhesus PDE2A3. It is filed as biochemical, rhesus macaque. The note with it: Lab A, read-out: Rhesus PDE2 Ki (nM) Lab A. As to the method: A Labcyte Echo 555 (Labcyte, Sunnyvale, Calif.) is used to dispense 200 nL from each well of the titration plate to the 384 well assay plate. Ten microliters of a solution of enzyme (1/2000 final dilution from aliquots; sufficient to produce 20% substrate conversion) was added to the assay plate. Next 10 uL of a separate solution of the substrate FAM-labeled cAMP (50 nM final concentration product # R7506 from Molecular Devices) and the activator cGMP (1 uM final concentration), prepared in the assay buffer (10 mM Tris HCl, pH 7.2, 10 mM MgCl2, 0.05% NaN3 0.01% Tween-20, and 1 mM DTT) was added to the assay plate and shaken to mix. The reaction is allowed to proceed at room temperature for 60 minutes. A binding solution is then made from the kit components, comprised of 80% Solution A, 20% Solution B and binding reagent at a volume of 1/600 the total binding solution. The enzymatic reaction is stopped by addition of 60 μL of the binding solution to each well of the assay plates and the plates are sealed and shaken for 30 seconds. The plate was incubated at room temperature for at least one hour prior to determining the fluorescence polarization (FP). The parallel and perpendicular fluorescence of each well of the plate was measured using a Tecan Genios Pro plate reader (Tecan, Switzerland) or Perkin Elmer EnVision™ plate reader (Waltham, Mass.). Fluorescence polarization (mP) was calculated from the parallel (S) and perpendicular (P) fluorescence of each sample well and the analogous values for the median control well, containing only substrate (So and Po), using the following equation: Polarization (mP)=1000*(S/So−P/Po)/(S/So+P/Po).
Sequence of Rhesus PDE2A3 (B3VTJ2 1-941): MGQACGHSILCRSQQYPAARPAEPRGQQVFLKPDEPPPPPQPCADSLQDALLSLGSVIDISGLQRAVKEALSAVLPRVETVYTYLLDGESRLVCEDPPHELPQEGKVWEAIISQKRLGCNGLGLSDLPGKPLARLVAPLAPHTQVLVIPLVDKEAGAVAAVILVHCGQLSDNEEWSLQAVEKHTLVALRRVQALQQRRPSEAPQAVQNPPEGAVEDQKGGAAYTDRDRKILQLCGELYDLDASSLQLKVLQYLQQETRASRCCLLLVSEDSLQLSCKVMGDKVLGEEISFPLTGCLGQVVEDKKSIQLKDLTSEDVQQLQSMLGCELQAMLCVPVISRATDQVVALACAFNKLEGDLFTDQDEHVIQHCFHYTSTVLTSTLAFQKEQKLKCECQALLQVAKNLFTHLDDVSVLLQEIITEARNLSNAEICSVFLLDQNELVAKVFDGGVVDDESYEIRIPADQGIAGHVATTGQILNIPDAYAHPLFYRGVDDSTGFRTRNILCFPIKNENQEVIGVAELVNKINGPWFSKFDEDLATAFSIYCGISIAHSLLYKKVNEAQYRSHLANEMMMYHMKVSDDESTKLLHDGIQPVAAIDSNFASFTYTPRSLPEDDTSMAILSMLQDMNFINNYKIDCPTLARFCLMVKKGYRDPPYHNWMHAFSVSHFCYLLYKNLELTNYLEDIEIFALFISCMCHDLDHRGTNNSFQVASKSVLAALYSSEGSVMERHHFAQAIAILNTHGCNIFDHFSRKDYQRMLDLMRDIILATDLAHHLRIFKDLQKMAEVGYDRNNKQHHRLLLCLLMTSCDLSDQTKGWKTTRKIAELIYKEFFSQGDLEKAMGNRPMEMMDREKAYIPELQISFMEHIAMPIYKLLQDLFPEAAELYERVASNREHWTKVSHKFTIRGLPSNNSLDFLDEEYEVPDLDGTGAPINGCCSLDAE
Dose-inhibition profiles for each compound were characterized by fitting the mP data to a four-parameter equation given below.
An apparent (KM) for FAM-labeled cAMP of ˜10 uM was used.
As to `Cc1ccc(C(C)n2nc(CO)c3c(=O)[nH]c(O)nc32)cc1` (stereo not shown) [Example 8], the Ki (usually a dissociation constant, usually derived from enzyme kinetics or from competition with a known ligand) came out at 411 nM.
Same read-out and setting: the figure for `O=c1[nH]c(O)nc2c1c(CO)nn2Cc1ccc(C(F)(F)F)cc1` [Example 9, 6-Hydroxy-3-(hydroxymethyl)-1-[4-(trifluoromethyl)benzyl]-1,5-dihydro-4H-pyrazolo[3,4-d]pyrimidin-4-one] is approximately 548 nM.
As for `Cc1nn(Cc2ccc(C(F)(F)F)cc2)c2nc(O)[nH]c(=O)c12` [Example 61, 6-Hydroxy-3-methyl-1-[4-(trifluoromethyl)benzyl]-1,5-dihydro-4H-pyrazolo[3,4-d]pyrimidin-4-one], the Ki is approximately 951 nM.

Still in this assay, the particulars now being: Lab B, read-out: Rhesus PDE2 Ki (nM) Lab B.
Turning to `CC(c1ccc(C(C)(C)C)cc1)n1nc(CC(F)(F)F)c2c(=O)[nH]c(O)nc21` (single isomer, unassigned) [Example 237, (S)- or (R)-1-(1-(4-tert-Butylphenyl)ethyl)-6-hydroxy-3-(2,2,2-trifluoroethyl)-1H-pyrazolo[3,4-d]pyrimidin-4(5H)-one], the Ki came to 494 nM.
Consider `O=c1[nH]c(O)nc2c1c(CC(F)(F)F)nn2C(c1ccc(C(F)(F)F)c(F)c1)C1CC1` (single isomer, unassigned) [Example 239, (S)- or (R)-1-(Cyclopropyl(3-fluoro-4-(trifluoromethyl)phenyl)methyl)-6-hydroxy-3-(2,2,2-trifluoroethyl)-1H-pyrazolo[3,4-d]pyrimidin-4(5H)-one], for which the Ki came out at 166 nM.
Same read-out and setting: the figure for `CC(C)C(c1ccc(C(F)(F)F)cc1)n1nc(CC(F)(F)F)c2c(=O)[nH]c(O)nc21` (single isomer, unassigned) [Example 241, (S)- or (R)-6-Hydroxy-1-(2-methyl-1-(4-(trifluoromethyl)phenyl)propyl)-3-(2,2,2-trifluoroethyl)-1H-pyrazolo[3,4-d]pyrimidin-4(5H)-one] is 199 nM; for `O=c1[nH]c(O)nc2c1c(CC(F)(F)F)nn2C(c1ccc(OC(F)(F)F)cc1)C1CC1` (single isomer, unassigned) [Example 242, (R)- or (S)-1-(Cyclopropyl(4-(trifluoromethoxy)phenyl)methyl)-6-hydroxy-3-(2,2,2-trifluoroelhyl)-1H-pyrazolo[3,4-d]pyrimidin-4(5H)-one] it is 150 nM; for `O=c1[nH]c(O)nc2c1c(CC(F)(F)F)nn2C(c1ccc(OC(F)(F)F)cc1)C1CC1` (single isomer, unassigned) [Example 243, (S)- or (R)-1-(Cyclopropyl(4-(trifluoromethoxy)phenyl)methyl)-6-hydroxy-3-(2,2,2-trifluoroelhyl)-1H-pyrazolo[3,4-d]pyrimidin-4(5H)-one] it is 191 nM.
On the same count and under the same terms, the figure for `CC1(C(c2ccc(C(F)(F)F)cc2)n2nc(CC(F)(F)F)c3c(=O)[nH]c(O)nc32)CC1` (single isomer, unassigned) [Example 245, (S)- or (R)-6-Hydroxy-l-((1-methylcyclopropyl)(4-(trifluoromethyl)phenyl)methyl)-3-(2,2,2-trifluoroethyl)-1H-pyrazolo[3,4-d]pyrimidin-4(5H)-one] is 698 nM; for `CC(C)(C)c1ccc(C(C2CC2)n2nc(CC(F)(F)F)c3c(=O)[nH]c(O)nc32)cc1` (single isomer, unassigned) [Example 251, (S)- or (R)-1-((4-tert-Butylphenyl)(cyclopropyl)methyl)-6-hydroxy-3-(2,2,2-trifluoroethyl)-1H-pyrazolo[3,4-d]pyrimidin-4(5H)-one] it is 363 nM.
On the same count and under the same terms, as for `O=c1[nH]c(O)nc2c1c(CC(F)(F)F)nn2C(c1ccc(OC(F)(F)F)c(F)c1)C1CC1` (single isomer, unassigned) [Example 253, (S)- or (R)-1-(Cyclopropyl(3-fluoro-4-(trifluoromethoxy)phenyl)methyl)-6-hydroxy-3-(2,2,2-trifluoroethyl)-1H-pyrazolo[3,4-d]pyrimidin-4(5H)-one], the figure is 120 nM; as for `CC(C)C(c1ccc(C(F)(F)F)c(F)c1)n1nc(CC(F)(F)F)c2c(=O)[nH]c(O)nc21` (single isomer, unassigned) [Example 259], 148 nM; as for `CC(C)C(c1ccc(C(C)(C)C)cc1)n1nc(CC(F)(F)F)c2c(=O)[nH]c(O)nc21` (single isomer, unassigned) [Example 261, (S)- or (R)-1-(1-(4-tert-Butylphenyl)-2-methylpropyl)-6-hydroxy-3-(2,2,2-trifluoroethyl)-1H-pyrazolo[3,4-d]pyrimidin-4(5H)-one], approximately 1400 nM.
For the compound `CC(C)(C)C(c1ccc(C(F)(F)F)cc1)n1nc(CC(F)(F)F)c2c(=O)[nH]c(O)nc21` (single isomer, unassigned) [Example 262, (R)- or (S)-1-(2,2-Dimethyl-1-(4-(trifluoromethyl)phenyl)propyl)-6-hydroxy-3-(2,2,2-trifluoroethyl)-1H-pyrazolo[3,4-d]pyrimidin-4(5H)-one], the inhibition constant (Ki) turned out to be 334 nM.
As for `CC(C)(C)C(c1ccc(C(F)(F)F)cc1)n1nc(CC(F)(F)F)c2c(=O)[nH]c(O)nc21` (single isomer, unassigned) [Example 263, (S)- or (R)-1-(2,2-Dimethyl-1-(4-(trifluoromethyl)phenyl)propyl)-6-hydroxy-3-(2,2,2-trifluoroethyl)-1H-pyrazolo[3,4-d]pyrimidin-4(5H)-one], the inhibitory constant (Ki) came to 5890 nM.
With `CC(C)C(c1ccc(OC(F)(F)F)c(F)c1)n1nc(CC(F)(F)F)c2c(=O)[nH]c(O)nc21` (single isomer, unassigned) [Example 264, (R)- or (S)-1-(1-(3-Fluoro-4-(trifluoromethoxy)phenyl)-2-methylpropyl)-6-hydroxy-3-(2,2,2-trifluoroethyl)-1H-pyrazolo[3,4-d]pyrimidin-4(5H)-one], the Ki was 600 nM.
The same measure, in the same setting: as for `CC(C)C(c1ccc(OC(F)(F)F)c(F)c1)n1nc(CC(F)(F)F)c2c(=O)[nH]c(O)nc21` (single isomer, unassigned) [Example 265, (S)- or (R)-1-(1-(3-Fluoro-4-(trifluoromethoxy)phenyl)-2-methylpropyl)-6-hydroxy-3-(2,2,2-trifluoroethyl)-1H-pyrazolo[3,4-d]pyrimidin-4(5H)-one], the figure is 276 nM; as for `CC(c1ccc(C(F)(F)F)cc1)n1nc(C(F)(F)C(F)(F)F)c2c(=O)[nH]c(O)nc21` (single isomer, unassigned) [Example 267, (S)- or (R)-6-Hydroxy-3-(perfluoroethyl)-1-(1-(4-(trifluoromethyl)phenyl)ethyl)-1H-pyrazolo[3,4-d]pyrimidin-4(5H)-one], 448 nM; as for `CC(c1ccc(OC(F)(F)F)cc1)n1nc(C(F)F)c2c(=O)[nH]c(O)nc21` (single isomer, unassigned) [Example 273, (R)- or (S)-3-(Difluoromethyl)-6-hydroxy-1-(1-(4-(trifluoromethoxy)phenyl)ethyl)-1H-pyrazolo[3,4-d]pyrimidin-4(5H)-one], 113 nM.
For `O=c1[nH]c(O)nc2c1c(C(F)F)nn2C(c1ccc(C(F)(F)F)cc1)C1CC1` (single isomer, unassigned) [Example 280, (S)- or (R)-1-(Cyclopropyl(4-(trifluoromethyl)phenyl)methyl)-3-(difluoromethyl)-6-hydroxy-1H-pyrazolo[3,4-d]pyrimidin-4(5H)-one], the Ki was found to be 85 nM.
On the same count and under the same terms, as for `CC(C)(C)C(c1ccc(C(F)(F)F)cc1)n1nc(C(F)F)c2c(=O)[nH]c(O)nc21` (single isomer, unassigned) [Example 283, (R)- or (S)-3-(Difluoromethyl)-1-(2,2-dimethyl-1-(4-(trifluoromethyl)phenyl)propyl)-6-hydroxy-1H-pyrazolo[3,4-d]pyrimidin-4(5H)-one], the figure is approximately 1510 nM; as for `CC(C)(C)C(c1ccc(C(F)(F)F)cc1)n1nc(C(F)F)c2c(=O)[nH]c(O)nc21` (single isomer, unassigned) [Example 284, (S)- or (R)-3-(Difluoromethyl)-1-(2,2-dimethyl-1-(4-(trifluoromethyl)phenyl)propyl)-6-hydroxy-1H-pyrazolo[3,4-d]pyrimidin-4(5H)-one], 206 nM.
For `CCC(c1ccc(C(F)(F)F)cc1)n1nc(C(F)F)c2c(=O)[nH]c(O)nc21` (single isomer, unassigned) [Example 285, (R)- or (S)-3-(Difluoromethyl)-6-hydroxy-1-(1-(4-(trifluoromethyl)phenyl)propyl)-1H-pyrazolo[3,4-d]pyrimidin-4(5H)-one], the Ki was 232 nM.
Same read-out and setting: the figure for `N#CCc1nn(C(c2ccc(C(F)(F)F)cc2)C2CC2)c2nc(O)[nH]c(=O)c12` (single isomer, unassigned) [Example 297] is 207 nM; for `CC(c1ccc(OC(F)(F)F)c(F)c1)n1nc(CC#N)c2c(=O)[nH]c(O)nc21` (single isomer, unassigned) [Example 300, (S)- or (R)-2-(1-(1-(3-Fluoro-4-(trifluoromethoxy)phenyl)ethyl)-6-hydroxy-4-oxo-4,5-dihydro-1H-pyrazolo[3,4-d]pyrimidin-3-yl)acetonitrile] it is 101 nM.

The values above are taken from patent US10174037B2, “Dihydropyrazolopyrimidinone compounds as PDE2 inhibitors” (Merck Sharp & Dohme Corp., priority 2015, dated 2019).
